Counter-ions that a name gives are not always drawn. Like-named read-outs stand apart in the source and are kept apart here.
Experiments:
GRK2 [1] = target: T1, GRK2 (Homo sapiens, UniProt P25098); assay: GRK2 Inhibition Assay (TR-FRET, Example 1); format: biochemical
T1 sequence (P25098 1-689): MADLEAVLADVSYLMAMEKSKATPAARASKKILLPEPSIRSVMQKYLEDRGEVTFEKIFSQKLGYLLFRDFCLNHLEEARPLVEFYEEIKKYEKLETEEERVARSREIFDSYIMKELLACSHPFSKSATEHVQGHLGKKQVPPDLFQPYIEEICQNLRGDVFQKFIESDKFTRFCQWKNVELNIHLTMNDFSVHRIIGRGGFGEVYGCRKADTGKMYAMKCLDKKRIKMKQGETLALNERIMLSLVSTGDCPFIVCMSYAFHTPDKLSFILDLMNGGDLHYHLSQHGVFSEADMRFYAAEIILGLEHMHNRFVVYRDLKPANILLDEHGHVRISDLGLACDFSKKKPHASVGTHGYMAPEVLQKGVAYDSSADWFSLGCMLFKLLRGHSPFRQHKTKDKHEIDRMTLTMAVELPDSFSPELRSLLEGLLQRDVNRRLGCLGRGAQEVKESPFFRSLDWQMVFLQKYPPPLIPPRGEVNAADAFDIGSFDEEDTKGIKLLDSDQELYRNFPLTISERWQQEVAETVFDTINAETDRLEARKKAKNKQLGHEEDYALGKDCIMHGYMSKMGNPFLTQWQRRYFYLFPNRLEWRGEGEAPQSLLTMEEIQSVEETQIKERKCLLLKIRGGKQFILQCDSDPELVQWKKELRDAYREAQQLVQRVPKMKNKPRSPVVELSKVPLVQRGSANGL
Outline: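 TR-FRET phosphorylation readout: Eu anti-TopoIIα antibody with EDTA added after a 90 min RT kinase reaction of 1 nM GRK2, 7 μM ATP and 50 nM ULight-TopoIIα. Compounds were pre-incubated with enzyme 30 min at room temperature beforehand.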

PAXF1657 EV = assay: 7-day cellular proliferation assay (CellTiter-Glo), PAXF1657 EV; format: cell-based
Outline: (§1)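 Isogenic PAXF1657 pairs differing in GRK2 level (stable cDNA overexpression or CRISPR knockout, each with matched control) are seeded and allowed to attach overnight. Inhibitors span 30 μM-0.0002 μM in 0.3% DMSO for 3 plus 4 days at 37° C, 5% CO2, with a medium change between.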

PAXF1657 KO Clone #4 = assay: 7-day cellular proliferation assay (CellTiter-Glo), PAXF1657 KO Clone #4; format: cell-based
Outline: as §1

GRK2 [2] = target: T1, GRK2; assay: GRK2 Degradation Assay and Western Blot in PAXF1657 cells; format: cell-based; design: endogenous in cells; host or cells: PAXF1657; details: for GRK2 degradation, dose dependence (FIGS. 1A-1D): 24-hour treatment in PAXF1657 cells; for DC50: PAXF1657, 24 h, read-out: Degradation Assay - Full Dose Response: IC50 (uM) [cell line: PAXF1657, time point: 24 h]
Outline: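 GRK2 degradation judged by immunoblot: NP40 lysates separated by SDS-PAGE and probed for GRK2 and β-actin, with HRP/ECL detection. Lysates came from PAXF1657 cells exposed to 0–10 μM compound for 6–24 h after reaching 70% confluency.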

[3] = Table 4, Example 1 assay, read-out: Enzymatic GRK2 IC50: Av IC50 GRK2
[4] = proliferation, read-out: GeoMean IC50 (UM) PAXF1657 EV
[5] = proliferation, read-out: GeoMean IC50 (uM) PAXF1657 KO Clone #4
[6] = Conc 0.3 uM, read-out: Degradation Assay - 3 point: Degradation (%)
[7] = Conc 1 uM, read-out: Degradation Assay - 3 point: Degradation (%)
[8] = Conc 3 uM, read-out: Degradation Assay - 3 point: Degradation (%)
[9] = TR-FRET, 7 μM ATP, read-out: Enzymatic GRK2 Assay: IC50 (nM) (Example 1)
[10] = 168 h, 7-day, read-out: 7-day proliferation assay: IC50 GeoMean (uM) [Cell Line: PAXF1657 EV]
[11] = 168 h, 7-day, read-out: 7-day proliferation assay: IC50 GeoMean (uM) [Cell Line: PAXF1657 KO Clone #4]
[12] = 0.3 uM, PAXF1657 EV, 24 hrs, read-out: % GRK2 degradation at 0.3 uM in PAXF1657 EV (24 hrs)
[13] = 1 uM, PAXF1657 EV, 24 hrs, read-out: % GRK2 degradation at 1 uM in PAXF1657 EV (24 hrs)
[14] = 3 uM, PAXF1657 EV, 24 hrs, read-out: % GRK2 degradation at 3 uM in PAXF1657 EV (24 hrs)

Structure (SMILES)	IC50 (GRK2 [1]; [3]) [nM]	IC50 (PAXF1657 EV; [4]) [µM]	IC50 (PAXF1657 KO Clone #4; [5]) [µM]	inhibition at 0.3 µM (GRK2 [2]; [6]) [%]	inhibition at 1 µM (GRK2 [2]; [7]) [%]	inhibition at 3 µM (GRK2 [2]; [8]) [%]	IC50 (GRK2 [1]; [9]) [nM]	IC50 (PAXF1657 EV; [10]) [µM]	IC50 (PAXF1657 KO Clone #4; [11]) [µM]	% GRK2 degradation at 0.03 uM in PAXF1657 EV (24 hrs) (GRK2 [2]; 0.03 uM, PAXF1657 EV, 24 hrs) [%]	% GRK2 degradation at 0.1 uM in PAXF1657 EV (24 hrs) (GRK2 [2]; PAXF1657 EV, 24 hrs) [%]	inhibition at 0.3 µM (GRK2 [2]; [12]) [%]	inhibition at 1 µM (GRK2 [2]; [13]) [%]	inhibition at 3 µM (GRK2 [2]; [14]) [%]	% GRK2 degradation at 10 uM in PAXF1657 EV (24 hrs) (GRK2 [2]; PAXF1657 EV, 24 hrs) [%]	GRK2 degradation, dose dependence (FIGS. 1A-1D) (GRK2 [2])	DC50 (GRK2 [2]) [µM]
C[C@@H](NC(=O)c1cccc(NCc2nnc(-c3ccncn3)n2C)c1)c1cccc(OCCCCCOCCCOCCOc2cccc3c2CN(C2CCC(=O)NC2=O)C3=O)c1 (stereo partly drawn) [Compound D198, N-((1R)-1-(3-((5-(3-(2-((2-(2,6-dioxopiperidin-3-yl)-1-oxoisoindolin-4-yl)oxy)ethoxy)propoxy)pentyl)oxy)phenyl)ethyl)-3-(((4-methyl-5-(pyrimidin-4-yl)-4H-1,2,4-triazol-3-yl)methyl)amino)benzamide]	22.1	0.01	> 30	83.9	81.6	50.3	–	–	–	–	–	–	–	–	–	–	–
Cn1c(CNc2cccc(C(=O)NCc3cc(OCCCCCCOCCOCCOCCCCCC(=O)Nc4cccc5c4CN(C4CCC(=O)NC4=O)C5=O)ccc3F)c2)nnc1-c1ccncn1 (stereo not drawn) [Compound D66, N-(5-((6-(2-(2-((6-((2-(2,6-dioxopiperidin-3-yl)-1-oxoisoindolin-4-yl)amino)-6-oxohexyl)oxy)ethoxy)ethoxy)hexyl)oxy)-2-fluorobenzyl)-3-(((4-methyl-5-(pyrimidin-4-yl)-4H-1,2,4-triazol-3-yl)methyl)amino)benzamide]	–	–	–	–	–	–	< 100	> 10	> 10	8	8	40	55	71	58	Dose dependent	–
C[C@@H](NC(=O)c1cccc(NCc2nnc(-c3ccncn3)n2C)c1)c1cccc(OCCCCN2CCN(c3ccc4c(c3)CN(C3CCC(=O)NC3=O)C4=O)CC2)c1 (stereo partly drawn) [Compound D129, N-((1R)-1-(3-(4-(4-(2-(2,6-dioxopiperidin-3-yl)-1-oxoisoindolin-5-yl)piperazin-1-yl)butoxy)phenyl)ethyl)-3-((4-methyl-5-(pyrimidin-4-yl)-4H-1,2,4-triazol-3-yl)methylamino)benzamide]	27.9	0.1	> 30	79.8	77.5	70.6	–	–	–	–	–	–	–	–	–	–	0.08
Cn1c(CNc2cccc(C(=O)NCc3cccc(OCCCCCCn4cc(CCCC(=O)Nc5cccc6c5CN(C5CCC(=O)NC5=O)C6=O)nn4)c3)c2)nnc1-c1ccncn1 (stereo not drawn) [Compound D63]	–	–	–	–	–	–	< 100	> 10	> 10	–	–	34	55	68	–	–	–
C[C@H](NC(=O)c1cccc(NCc2nnc(-c3ccncn3)n2C)c1)c1cccc(OCCCCCOCCCOCC(=O)Nc2cccc3c2CN(C2CCC(=O)NC2=O)C3=O)c1 (stereo partly drawn) [Compound D185, N-((1S)-1-(3-((5-(3-(2-((2-(2,6-dioxopiperidin-3-yl)-1-oxoisoindolin-4-yl)amino)-2-oxoethoxy)propoxy)pentyl)oxy)phenyl)ethyl)-3-(((4-methyl-5-(pyrimidin-4-yl)-4H-1,2,4-triazol-3-yl)methyl)amino)benzamide]	211	> 30	> 30	1.79	17.5	19.2	–	–	–	–	–	–	–	–	–	–	–
C[C@@H](NC(=O)c1cccc(NCc2nnc(-c3ccncn3)n2C)c1)c1cccc(OCCCCCCOCCOCC(=O)N2CCN(c3ccc4c(c3)CN(C3CCC(=O)NC3=O)C4=O)CC2)c1 (stereo partly drawn) [Compound D138, N-((1R)-1-(3-(6-(2-(2-(4-(2-(2,6-dioxopiperidin-3-yl)-1-oxoisoindolin-5-yl)piperazin-1-yl)-2-oxoethoxy)ethoxy)hexyloxy)phenyl)ethyl)-3-((4-methyl-5-(pyrimidin-4-yl)-4H-1,2,4-triazol-3-yl)methylamino)benzamide hydrochloride]	20.2	0.66	> 30	85	92	95	–	–	–	–	–	–	–	–	–	–	0.137
Cn1c(CNc2cccc(C(=O)NCc3cccc(OCCCCCOCCCOCC(=O)Nc4cccc5c4CN(C4CCC(=O)NC4=O)C5=O)c3)c2)nnc1-c1ccncn1 (stereo not drawn) [Compound D64, N-(3-((5-(3-(2-((2-(2,6-dioxopiperidin-3-yl)-1-oxoisoindolin-4-yl)amino)-2-oxoethoxy)propoxy)pentyl)oxy)benzyl)-3-(((4-methyl-5-(pyrimidin-4-yl)-4H-1,2,4-triazol-3-yl)methyl)amino)benzamide]	–	–	–	–	–	–	< 100	> 10	> 10	–	26	62	79	83	77	Dose dependent	–
Cc1ncsc1-c1ccc([C@H](C)NC(=O)[C@@H]2C[C@@H](O)CN2C(=O)[C@@H](NC(=O)COCCCOCCCCCOc2cccc([C@@H](C)NC(=O)c3cccc(NCc4nnc(-c5ccncn5)n4C)c3)c2)C(C)(C)C)cc1 [Compound D169]	14.5	0.12	8.15	23.6	39.4	24	–	–	–	–	–	–	–	–	–	–	–
C[C@@H](NC(=O)c1cccc(NCc2nnc(-c3ccncn3)n2C)c1)c1cccc(OCCCCCOCCCOCCNc2ccc3c(c2)CN(C2CCC(=O)NC2=O)C3=O)c1 (stereo partly drawn) [Compound D171, N-((1R)-1-(3-(5-(3-(2-(2-(2,6-dioxopiperidin-3-yl)-1-oxoisoindolin-5-ylamino)ethoxy)propoxy)pentyloxy)phenyl)ethyl)-3-((4-methyl-5-(pyrimidin-4-yl)-4H-1,2,4-triazol-3-yl)methylamino)benzamide]	28.7	0.09	> 30	89.7	90.6	76.2	–	–	–	–	–	–	–	–	–	–	–

— patent US20240174637A1, “DEGRADERS OF GRK2 AND USES THEREOF” (Sonata Therapeutics, Inc., priority 2021, published 2024)
